What is called EC50 is the concentration that produces a half-maximal response. Low readings indicate an effect from little substance, high ones a need for much substance.

For this assay, the target named is T1, human VDR (Homo sapiens, UniProt P11473).
T1 sequence (P11473 1-427): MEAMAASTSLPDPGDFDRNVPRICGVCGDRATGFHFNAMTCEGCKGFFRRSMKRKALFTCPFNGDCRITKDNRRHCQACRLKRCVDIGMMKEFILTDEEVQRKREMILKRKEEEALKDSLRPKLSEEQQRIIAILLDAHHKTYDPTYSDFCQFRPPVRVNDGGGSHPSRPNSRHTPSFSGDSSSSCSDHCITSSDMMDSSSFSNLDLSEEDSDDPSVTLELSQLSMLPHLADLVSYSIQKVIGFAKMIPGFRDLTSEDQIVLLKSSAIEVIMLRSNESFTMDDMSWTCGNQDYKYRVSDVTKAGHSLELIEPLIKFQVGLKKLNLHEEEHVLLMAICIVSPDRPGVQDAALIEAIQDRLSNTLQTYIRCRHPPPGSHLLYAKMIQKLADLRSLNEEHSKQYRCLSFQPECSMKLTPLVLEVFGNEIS
T1 sequence (P19793 1-462 partner): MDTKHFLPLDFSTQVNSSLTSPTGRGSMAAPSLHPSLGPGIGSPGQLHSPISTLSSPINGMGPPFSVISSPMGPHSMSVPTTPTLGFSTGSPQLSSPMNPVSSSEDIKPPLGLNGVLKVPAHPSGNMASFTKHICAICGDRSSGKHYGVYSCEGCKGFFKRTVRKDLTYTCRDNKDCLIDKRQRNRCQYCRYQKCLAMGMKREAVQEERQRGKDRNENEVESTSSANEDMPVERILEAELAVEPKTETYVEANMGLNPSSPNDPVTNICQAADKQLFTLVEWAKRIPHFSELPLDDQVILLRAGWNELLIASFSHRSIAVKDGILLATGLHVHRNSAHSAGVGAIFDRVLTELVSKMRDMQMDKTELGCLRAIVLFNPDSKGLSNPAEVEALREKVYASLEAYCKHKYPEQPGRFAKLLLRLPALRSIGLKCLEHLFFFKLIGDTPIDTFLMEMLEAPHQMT
Description: Evaluation of VDR transcription activity in human osteoblasts (HOS cells), luciferase reporter. To be noted: Activity (EC50, VDR transcription activity), HOS cells transfected with human VDR, human RXRα and DR3 luciferase reporter; 21 hours. A general note: In a reporter assay the amount or activity of a reporter protein is the signal.
The compound `C=C1/C(=C\C=C2/CCC[C@]3(C)[C@@H]([C@H](C)CN4CC[C@@H](OC(F)(F)F)C4)CC[C@@H]23)C[C@@H](O)C[C@@H]1O` [Compound B066, (1R,3S,Z)-5-(2-((1R,3aS,7aR,E)-7a-methyl-1-((S)-1-((R)-3-(trifluoromethoxy)pyrrolidin-1-yl)propan-2-yl)octahydro-4H-inden-4-ylidene)ethylidene)-4-methylenecyclohexane-1,3-diol] came in with an EC50 of 10 to 100 nM.

The compound `C=C1/C(=C\C=C2/CCC[C@]3(C)[C@@H]([C@H](C)CN4CC[C@](C)(O)C4)CC[C@@H]23)C[C@@H](O)C[C@@H]1O` [Compound B071, (1R,3S,Z)-5-(2-((1R,3aS,7aR,E)-1-((S)-1-((S)-3-hydroxy-3-methylpyrrolidin-1-yl)propan-2-yl)-7a-methyloctahydro-4H-inden-4-ylidene)ethylidene)-4-methylenecyclohexane-1,3-diol] had an EC50 of 10 to 100 nM.

For the compound `C=C1/C(=C\C=C2/CCC[C@]3(C)[C@@H]([C@H](C)CN4CC[C@@](C)(O)C4)CC[C@@H]23)C[C@@H](O)C[C@@H]1O` [Compound B074, (1R,3S,Z)-5-(2-((1R,3aS,7aR,E)-1-((S)-1-((R)-3-hydroxy-3-methylpyrrolidin-1-yl)propan-2-yl)-7a-methyloctahydro-4H-inden-4-ylidene)ethylidene)-4-methylenecyclohexane-1,3-diol], the EC50 lay in the range of 100 to 1000 nM.

`C=C1[C@H](O)CC(=C/C=C2\CCC[C@]3(C)[C@@H]([C@H](C)CN4CCC(O)(C5CC5)C4)CC[C@@H]23)C[C@H]1O` (stereo partly drawn) [Compound B077, (1R,3R)-5-(2-((1R,3aS,7aR,E)-1-((2S)-1-(3-cyclopropyl-3-hydroxypyrrolidin-1-yl)propan-2-yl)-7a-methyloctahydro-4H-inden-4-ylidene)ethylidene)-2-methylenecyclohexane-1,3-diol] had an EC50 of 10 to 100 nM.

`C[C@H](CCN1CC[C@H](C(F)F)C1)[C@H]1CC[C@H]2/C(=C/C=C3C[C@@H](O)C[C@H](O)C3)CCC[C@]12C` [Compound B080, (1R,3R)-5-(2-((1R,3aS,7aR,E)-1-((R)-4-((S)-3-(difluoromethyl)pyrrolidin-1-yl)butan-2-yl)-7a-methyloctahydro-4H-inden-4-ylidene)ethylidene)cyclohexane-1,3-diol]: the EC50 was in the range of 10 to 100 nM.

As for `C[C@H](CCN1CC[C@@H](C(F)F)C1)[C@H]1CC[C@H]2/C(=C/C=C3C[C@@H](O)C[C@H](O)C3)CCC[C@]12C` [Compound B081, (1R,3R)-5-(2-((1R,3aS,7aR,E)-1-((R)-4-((R)-3-(difluoromethyl)pyrrolidin-1-yl)butan-2-yl)-7a-methyloctahydro-4H-inden-4-ylidene)ethylidene)cyclohexane-1,3-diol], the EC50 is 10 to 100 nM.

`C[C@H](CCN1CC[C@H](C(C)(F)F)C1)[C@H]1CC[C@H]2/C(=C/C=C3C[C@@H](O)C[C@H](O)C3)CCC[C@]12C` [Compound B083, (1R,3R)-5-(2-((1R,3aS,7aR,E)-1-((R)-4-((S)-3-(1,1-difluoroethyl)pyrrolidin-1-yl)butan-2-yl)-7a-methyloctahydro-4H-inden-4-ylidene)ethylidene)cyclohexane-1,3-diol]: the EC50 was in the range of 10 to 100 nM.

Compound `C[C@H](CCCN1CC[C@H](C(F)F)C1)[C@H]1CC[C@H]2/C(=C/C=C3C[C@@H](O)C[C@H](O)C3)CCC[C@]12C` [Compound B084, (1R,3R)-5-(2-((1R,3aS,7aR,E)-1-((R)-5-((S)-3-(difluoromethyl)pyrrolidin-1-yl)pentan-2-yl)-7a-methyloctahydro-4H-inden-4-ylidene)ethylidene)cyclohexane-1,3-diol] had an EC50 of 10 to 100 nM.

In turn, `C[C@H](CCCN1CC[C@@H](C(F)F)C1)[C@H]1CC[C@H]2/C(=C/C=C3C[C@@H](O)C[C@H](O)C3)CCC[C@]12C` [Compound B085, (1R,3R)-5-(2-((1R,3aS,7aR,E)-1-((R)-5-((R)-3-(difluoromethyl)pyrrolidin-1-yl)pentan-2-yl)-7a-methyloctahydro-4H-inden-4-ylidene)ethylidene)cyclohexane-1,3-diol] gave an EC50 of 10 to 100 nM.

These data come from patent US20230348376A1 (TEIJIN PHARMA LIMITED, priority 2020, published 2023).
